Results on 28 compounds are retold here after PMC11259170, “Small-molecule probe for IBD risk variant GPR65 I231L alters cytokine signaling networks through positive allosteric modulation” (Science Advances, 2024).

The subject of test [1] is GPR65 KO HeLa cells + pLX empty vector. In words: cAMP detection, GPR65 KO HeLa + empty pLX vector (null control). The settings on record: HeLa GPR65 KO + pLX, pH 7.1, 30 min, normalized to DMSO and 100 μM forskolin. The class given is cell-based, human. How it is done:
(§1) The Lance Ultra cAMP Kit (PerkinElmer, TRF0264) was used for cAMP detection, and included the following reagents: ULight anti-cAMP antibody, Eu-cAMP tracer, 7.5% BSA Stabilizer solution, and cAMP detection buffer. Stimulation buffer was prepared as described by the kit manufacturer as follows: Hanks buffered saline solution (HBSS, Life Technologies, 14025-126) containing 0.5 mM IBMX (3-isobutyl-1-methylxanthine, Sigma-Aldrich, I7018) and buffered with 1 M Hepes (15630-080). Stimulation buffer was then adjusted to pH 7.1 using 12 N HCl. HeLa cells were lifted using Versene and then suspended at 2.5 × 10^5 cells/ml in stimulation buffer. Cells were then plated at 20 μl per well (5000 cells per well) in white, opaque OptiPlate 384-well MicroPlates (PerkinElmer, 6007299) using a Thermo Fisher Scientific Combi liquid dispenser. Compounds, stored at 5 mM in DMSO for the primary screen, or in a range of concentrations from 39 μM to 20 mM for dose curves, were transferred by the CyBio CyBi-Well Vario pin transfer tool with 100-nl pins (V&P FP1NS50H, 50-nl slot, 0.457-mm diameter, hydrophobic coated), into each assay well, 100 nl per well for a final assay concentration of 25 μM for the primary screen, or 195 nM to 100 μM for dose curves. Assay plates were then incubated at RT for 30 min. Eu-cAMP tracer was diluted 1:33 into detection buffer and the final solution then distributed into assay wells, 5 μl per well. ULight anti-cAMP antibody was diluted 1:100 into detection buffer, then distributed into assay wells, also 5 μl per well. Assay plates were then incubated at RT in the dark for 1 hour. Eu-cAMP tracer and Förster resonance energy transfer (FRET) emissions were then read using a PerkinElmer EnVision Multimode plate reader (ENVISION21040010), exciting each well at 320 nm [UV2 (TRF) 320 filter] and reading emissions at 615 nm (Europium 615 filter) and 665 nm (APC665 filter). Data analysis was performed using Genedata Screener and GraphPad Prism.
(§2) HeLa KO cell lines were generated using the px330 plasmid CRISPR system as previously described ([18]). Briefly, HeLa cells were transfected with a Cas9 vector containing a gene-specific single-guide RNA to target the GPR65 coding exon. Forty-eight to 72 hours after transfection, single clones were obtained through limiting dilution and then sequenced to validate the KO. Reconstituted cell lines were produced by transducing KO cells with empty lentivirus or lentivirus containing hGPR65 or mGPR65. After 48 hours, cells were treated with puromycin (3 μg/ml; InvivoGen, ant-pr-1) and resistant cells were used in experiments.

The target of a further test is T1, hGPR65 (Homo sapiens, UniProt Q8IYL9).
T1 construct: expressed in transfected cells; host or cells: HeLa (ATCC CCL-2), lentiviral transduction, pLX317
T1 sequence (Q8IYL9 whole entry): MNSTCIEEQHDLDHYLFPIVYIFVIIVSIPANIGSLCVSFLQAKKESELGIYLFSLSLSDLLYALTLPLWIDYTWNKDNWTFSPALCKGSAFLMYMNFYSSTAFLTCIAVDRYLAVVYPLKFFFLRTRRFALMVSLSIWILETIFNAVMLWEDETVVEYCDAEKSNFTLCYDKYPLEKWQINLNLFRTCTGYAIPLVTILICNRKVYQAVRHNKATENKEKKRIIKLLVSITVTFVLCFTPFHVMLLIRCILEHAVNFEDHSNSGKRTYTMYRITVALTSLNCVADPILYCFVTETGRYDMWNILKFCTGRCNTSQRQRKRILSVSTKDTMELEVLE
In words: cAMP detection (Lance Ultra), GPR65 KO HeLa reconstituted with hGPR65; 21K screen dose confirmation. The class given is cell-based. The settings on record: HeLa GPR65 KO + hGPR65, pH 7.1, 30 min, normalized to DMSO and 100 μM forskolin; read-out: WT EC50. How it is done: as §1, §2

The target of the next test is T2, hGPR65-SmBiT (Homo sapiens, UniProt Q8IYL9).
T2 construct: expressed in transfected cells; host or cells: Expi293F (Gibco), transient transfection
T2 sequence (Q8IYL9 whole entry): as above
In words: Nano-BiT target engagement, LgBiT-mGs recruitment to hGPR65-SmBiT in Expi293F cells. It is filed as cell-based. Conditions: isoproterenol treatment. The method, then:
Target engagement was measured in Expi293F (Gibco, 100044202) cells using the Nano-Glo Live Cell Assay System (Promega, N2011). Nano-BiT plasmids were cloned from GPR65-, GPR4-, and GPR68-Tango plasmids. GPR65-Tango (Addgene plasmid # 66370; http://n2t.net/addgene:66370; RRID:Addgene_66370), GPR4-Tango (Addgene plasmid # 66358; http://n2t.net/addgene:66358; RRID:Addgene_66358), and GPR68-Tango (Addgene plasmid # 66371; http://n2t.net/addgene:66371; RRID:Addgene_66371) were gifts from Bryan Roth. Expi293F cells were transfected 1 day before kinetics with 500 ng of each plasmid using ExpiFectamine 293 Transfection Kit (Gibco, A14525). After 24 hours, cells were collected, washed, and resuspended in room temperature 0.1% PBS-BSA, adjusted to pH 7.4 using 1 M NaOH. Cells were transferred to white opaque 96-well microplates (100 μl per well, PerkinElmer, 6005290), followed by addition of the Nano-Glo Live Cell Reagent (25 μl per well). Baseline luminescence was measured for 10 cycles (1 cycle = 90 s) before adding compounds. All luminescence measurements were made on BMG Labtech PHERAstar FSX. Data analysis was performed using GraphPad Prism.

Molecules are shown by their SMILES. A value given as a limit tells only on which side of the number the result lay.

On to `O=C(c1ccco1)N1CCN(c2ccnc3cc(Cl)ccc23)CC1` [BRD-K27679143-001-08-6], for which the EC50 came to 15.6 µM in test [1] and 18.3 µM on hGPR65.
The corresponding values for `Cn1ccc2c(-c3ccc(C(=O)N4CCCC4)cn3)ccnc21` [BRD-K29607656-001-02-7] are more than 100 µM and more than 100 µM.
For `Cn1ccc2c(-c3cccc(=O)[nH]3)ccnc21` [BRD-K33217544-001-03-3], the EC50 in test [1] stood at 89.8 µM; on hGPR65 it was 91.8 µM.
The corresponding values for `O=C(CN1CCC(c2ccncc2)CC1)N1CCOCC1` [BRD-K33295678-001-02-9] are more than 100 µM and more than 100 µM.
Taken in the same sequence, the figures for `CCCOc1cc2c(cc1CN(C)Cc1cc(=O)[nH]c3ccccc13)OCO2` [BRD-K37392365-001-02-8] were more than 100 µM and more than 100 µM.
As for `N#Cc1cnc(SCc2cc(=O)[nH]c3ccccc23)nc1N` [BRD-K39252032-001-02-5], the EC50 in test [1] is 67.6 µM; on hGPR65, more than 100 µM.
The corresponding values for `Cn1c(=O)n(C)c2cc(NC(=O)CSc3ncc(C#N)c(N)n3)ccc21` [BRD-K40764399-001-02-3] are more than 100 µM and more than 100 µM.
Taken in the same sequence, the figures for `O=C(O)CCCc1nc(-c2cccnc2)no1` [BRD-K41365409-001-02-6] were 35.7 µM and 41.3 µM.
`COc1ccc(NC(=O)CSc2nc3ccc(C)cc3cc2C#N)cc1` [BRD-K45250069-001-02-7]: the EC50 (in test [1]; at hGPR65) was more than 100 µM throughout.
With `O=C(O)C1CCN(c2ncnc3ccccc23)CC1` [BRD-K45393828-001-02-7], the results for the EC50 (in test [1]; at hGPR65) were 39.5 µM and 54.4 µM, respectively.
As to `COc1ccc(Nc2nnc(-c3ccc(C(N)=O)cc3)c3ccccc23)cc1` [BRD-K46612369-001-11-5], the EC50 (in test [1]; on hGPR65) was more than 100 µM each time.
For `c1ccc(-c2cc3ncnc(N4CCSCC4)c3s2)cc1` [BRD-K51028315-001-02-0], the EC50 (in test [1]; on hGPR65) was more than 100 µM each time.
Turning to `CCc1cc(CC)c2sc3ccccc3c(=O)c2c1` [BRD-K51520769-001-02-7], the EC50 (in test [1]; on hGPR65) was more than 100 µM each time.
Take `O=C(O)c1nccnc1C(=O)N1CCCN(c2c(Cl)cncc2Cl)CC1` [BRD-K53955368-001-02-8]: the EC50 (in test [1]; on hGPR65) was more than 100 µM in each case.
For the compound `NC(=O)C1CCN(C(=O)CN2CCN(c3ccnc4cc(Cl)ccc34)CC2)CC1` [BRD-K56344229-001-02-1], the values for the EC50 (in test [1]; on hGPR65) were 12.5 µM and 15.6 µM, respectively.
As for `COC(=O)c1cc2c(s1)-c1cc(F)ccc1OC2` [BRD-K56384677-001-09-9], the figures for the EC50 (in test [1]; on hGPR65) were 94.3 µM and 90 µM, respectively.
The corresponding values for `CN(Cc1ccc2ncccc2c1)C(=O)[C@@H]1C[C@H](N)CN1C` [BRD-K56675411-001-02-6] are 57.3 µM and 70.2 µM.
As for `Cc1nccn1-c1ccc(CN(Cc2cccnc2)C2CC(C)(C)NC(C)(C)C2)cc1` [BRD-K56921026-001-02-1], the EC50 was determined as 50.8 µM in test [1] and 57 µM on hGPR65.
Taken in the same sequence, the figures for `O=C(CN1CCC(c2ccncc2)CC1)NCc1cccs1` [BRD-K63268990-001-02-0] were more than 100 µM and more than 100 µM.
Taken in the same sequence, the figures for `O=c1[nH]c2ccccc2c2oc(-c3ccccc3)nc12` [BRD-K66733191-001-02-7] were 71 µM and 91.2 µM.
Take `COc1ccc(C(=O)c2cn(CC(=O)Nc3nc4c(s3)CCCC4)c3cnccc23)cc1` [BRD-K74442183-001-02-5]: the EC50 (in test [1]; on hGPR65) was less than 30 µM throughout.
As to `O=C(Nc1cccc2nsnc12)c1sc2ccccc2c1Cl` [BRD-K76966415-001-02-1], the EC50 (in test [1]; at hGPR65) was less than 30 µM in each case.
Turning to `O=C(Cn1nnc(-c2ccccc2NC(=O)c2ccccc2)n1)NC1CCCCC1` [BRD-K79778627-001-02-1], the EC50 is 73.7 µM in test [1] and more than 100 µM at hGPR65.
Taken in the same sequence, the figures for `Cc1ccc(C(=O)Cn2c(=O)n(C(C)C)c3nc(-c4ccc(F)cc4)nc(C(N)=O)c32)cc1` [BRD-K81805280-001-02-6] were more than 100 µM and more than 100 µM.
Consider `Cc1cc2c(cc1-c1cncn1CCN(C)C1CCCC1)n(C)c(=O)n2C` [BRD-K91081402-001-02-5], for which the EC50 (in test [1]; at hGPR65) was more than 100 µM throughout.
Regarding `O=C(c1cc2c([nH]c1=O)CCC2)N1CCN(c2ccnc3cc(Cl)ccc23)CC1` [BRD-K91175373-001-02-0], the values for the EC50 (in test [1]; at hGPR65) were 16.9 µM and 20.1 µM, respectively.
For `Cn1cc(C(=O)c2ccc(F)cc2)c2ccnc(Cl)c21` [BRD-K96864761-001-02-4], the EC50 in test [1] worked out at 44.5 µM; at hGPR65, 48.1 µM.
Consider `CC(C)NCC(O)c1ccc(O)c(O)c1` (stereo not shown) [isoproterenol, reference compound], for which, on hGPR65-SmBiT, the “luminescence in hGPR65-SmBiT/LgBiT-mGs cells” value was “did not elicit a change in luminescence”.
